# Experimental data from ChEMBL document CHEMBL6092221, “Discovery of a Novel Macrocyclic Noncovalent CDK7 Inhibitor for Cancer Therapy” (J Med Chem, 2024).
# Legend:
# [1] = Efflux ratio of permeability in human Caco-2 cells; type: ADME, cell-based
# [2] = Volume of distribution at steady state in female Balb/c nude mouse at 1 mg/kg, iv; type: ADME, organism-based; conditions: in vivo, read-out: Vdss
# [3] = Cmax in female Balb/c nude mouse at 5 mg/kg, po; type: ADME, organism-based; conditions: in vivo
# [4] = Permeability in human Caco-2 cells; type: ADME, cell-based; conditions: read-out: permeability
# [5] = AUC(0 to t) in female Balb/c nude mouse at 5 mg/kg, po; type: ADME, organism-based; conditions: in vivo
# [6] = Clearance in female Balb/c nude mouse at 1 mg/kg, iv; type: ADME, organism-based; conditions: in vivo
# [7] = Half life in female Balb/c nude mouse at 5 mg/kg, po; type: ADME, organism-based; conditions: in vivo
# OVCAR-3 [8] = assay: cells; conditions: Homo sapiens, OVCAR-3, 72 h
# Description: Antiproliferative activity against human OVCAR-3 cells assessed as inhibition of cell proliferation incubated for 72 hrs by celltiter-glo assay
# HCC70 [9] = assay: cells; conditions: Homo sapiens, HCC70, 72 h
# Description: Antiproliferative activity against human HCC70 cells assessed as inhibition of cell proliferation incubated for 72 hrs by celltiter-glo assay
# [10] = biological target: Cyclin-dependent kinase 7/ cyclin H (Homo sapiens, UniProt P50613); assay: Binding affinity to CDK7/CyclinH (unknown origin) assessed as dissociation constant by SPR assay; type: protein-complex assay
# Cyclin-dependent kinase 7/ cyclin H, sequence (P51946 whole entry): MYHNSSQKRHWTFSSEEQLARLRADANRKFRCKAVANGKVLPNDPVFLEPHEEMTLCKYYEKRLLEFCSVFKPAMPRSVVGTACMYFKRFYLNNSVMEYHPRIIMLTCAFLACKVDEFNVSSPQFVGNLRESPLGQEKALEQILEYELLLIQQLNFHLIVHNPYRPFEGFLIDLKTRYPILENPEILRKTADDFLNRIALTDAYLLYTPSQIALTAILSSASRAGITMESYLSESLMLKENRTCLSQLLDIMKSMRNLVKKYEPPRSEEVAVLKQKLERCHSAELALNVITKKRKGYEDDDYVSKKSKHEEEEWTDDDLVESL
# Cyclin-dependent kinase 7/ cyclin H, sequence (P50613 whole entry): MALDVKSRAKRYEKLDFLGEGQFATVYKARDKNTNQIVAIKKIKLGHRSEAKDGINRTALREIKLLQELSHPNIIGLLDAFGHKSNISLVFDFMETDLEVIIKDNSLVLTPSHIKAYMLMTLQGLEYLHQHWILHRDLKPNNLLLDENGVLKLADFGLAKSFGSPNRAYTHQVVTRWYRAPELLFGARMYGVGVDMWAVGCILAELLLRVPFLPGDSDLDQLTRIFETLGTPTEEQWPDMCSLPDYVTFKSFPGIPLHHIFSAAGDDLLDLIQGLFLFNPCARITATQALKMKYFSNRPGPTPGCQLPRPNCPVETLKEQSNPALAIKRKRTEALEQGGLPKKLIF
# [11] = Oral bioavailability in female Balb/c nude mouse at 5 mg/kg; type: ADME, organism-based; conditions: in vivo
# [12] = Cmax in female Balb/c nude mouse at 10 mg/kg, po; type: ADME, organism-based; conditions: in vivo
# [13] = AUC(0 to infinity) in female Balb/c nude mouse at 1 mg/kg, iv; type: ADME, organism-based; conditions: in vivo
# [14] = Half life in female Balb/c nude mouse at 10 mg/kg, po; type: ADME, organism-based; conditions: in vivo
# [15] = AUC(0 to infinity) in female Balb/c nude mouse at 10 mg/kg, po; type: ADME, organism-based; conditions: in vivo
# [16] = Oral bioavailability in female Balb/c nude mouse at 10 mg/kg; type: ADME, organism-based; conditions: in vivo
# [17] = Metabolic stability in mouse liver microsomes assessed as intrinsic clearance; type: ADME, Microsome; conditions: read-out: CLH
# [18] = AUC(0 to t) in dog at 2 mg/kg, po; type: ADME, organism-based, Canis lupus familiaris; conditions: in vivo
# [19] = Plasma protein binding in mouse assessed as unbound fraction; type: ADME, cell-free
# [20] = Half life in mouse at 1 mg/kg, iv; type: ADME, organism-based; conditions: in vivo, iv, 1 mg/kg
# [21] = Cmax in human OVCAR-3 cells xenografted in female Balb/c nude mouse plasma at 5 mg/kg, po administered once daily; type: ADME, organism-based
# [22] = Plasma protein binding in human assessed as unbound fraction; type: ADME, cell-free
# [23] = Oral bioavailability in rat at 5 mg/kg; type: ADME, organism-based; conditions: in vivo
# [24] = Cmax in dog at 2 mg/kg, po; type: ADME, organism-based, Canis lupus familiaris; conditions: in vivo
# [25] = Drug concentration in rat small intestine at 5 mg/kg, po measured after 8 hrs; type: ADME, organism-based; conditions: read-out: Ct
# [26] = Drug concentration in rat plasma at 5 mg/kg, po measured after 0.5 hrs; type: ADME, organism-based
# [27] = AUC(0 to t) in mouse at 5 mg/kg, po; type: ADME, organism-based; conditions: in vivo
# [28] = Drug concentration in rat plasma at 5 mg/kg, po measured after 8 hrs; type: ADME, organism-based
# [29] = Half life in dog at 2 mg/kg, po; type: ADME, organism-based, Canis lupus familiaris; conditions: in vivo
# [30] = Oral bioavailability in dog at 2 mg/kg; type: ADME, organism-based, Canis lupus familiaris; conditions: in vivo
# [31] = AUC(0 to t) in human HCC70 cells xenografted in female nu/nu mouse plasma at 1 mg/kg, po administered once daily; type: ADME, organism-based
# [32] = AUC(0 to t) in rat at 5 mg/kg, po; type: ADME, organism-based; conditions: in vivo
# [33] = Oral bioavailability in mouse at 5 mg/kg; type: ADME, organism-based; conditions: in vivo
# [34] = Cmax in mouse at 5 mg/kg, po; type: ADME, organism-based; conditions: in vivo
# [35] = Clearance in rat at 1 mg/kg, iv; type: ADME, organism-based; conditions: in vivo
# [36] = AUC(0 to t) in rat at 1 mg/kg, iv; type: ADME, organism-based; conditions: in vivo
# [37] = AUC (0 to t) in human OVCAR-3 cells xenografted in female Balb/c nude mouse plasma at 5 mg/kg, po administered once daily; type: ADME, organism-based
# [38] = Solubility of compound at pH 7.4; type: physicochemical; conditions: buffer
# [39] = Half life in mouse at 5 mg/kg, po; type: ADME, organism-based; conditions: in vivo
# [40] = Drug concentration in rat plasma at 5 mg/kg, po measured after 2 hrs; type: ADME, organism-based
# [41] = Plasma protein binding in rat assessed as unbound fraction; type: ADME, cell-free
# [42] = Clearance in dog at 1 mg/kg, iv; type: ADME, organism-based, Canis lupus familiaris; conditions: in vivo
# hERG = hERG (Homo sapiens, UniProt Q12809); assay: Inhibition of hERG at 10 uM relative to control; type: toxicity
# hERG, sequence (Q12809 whole entry): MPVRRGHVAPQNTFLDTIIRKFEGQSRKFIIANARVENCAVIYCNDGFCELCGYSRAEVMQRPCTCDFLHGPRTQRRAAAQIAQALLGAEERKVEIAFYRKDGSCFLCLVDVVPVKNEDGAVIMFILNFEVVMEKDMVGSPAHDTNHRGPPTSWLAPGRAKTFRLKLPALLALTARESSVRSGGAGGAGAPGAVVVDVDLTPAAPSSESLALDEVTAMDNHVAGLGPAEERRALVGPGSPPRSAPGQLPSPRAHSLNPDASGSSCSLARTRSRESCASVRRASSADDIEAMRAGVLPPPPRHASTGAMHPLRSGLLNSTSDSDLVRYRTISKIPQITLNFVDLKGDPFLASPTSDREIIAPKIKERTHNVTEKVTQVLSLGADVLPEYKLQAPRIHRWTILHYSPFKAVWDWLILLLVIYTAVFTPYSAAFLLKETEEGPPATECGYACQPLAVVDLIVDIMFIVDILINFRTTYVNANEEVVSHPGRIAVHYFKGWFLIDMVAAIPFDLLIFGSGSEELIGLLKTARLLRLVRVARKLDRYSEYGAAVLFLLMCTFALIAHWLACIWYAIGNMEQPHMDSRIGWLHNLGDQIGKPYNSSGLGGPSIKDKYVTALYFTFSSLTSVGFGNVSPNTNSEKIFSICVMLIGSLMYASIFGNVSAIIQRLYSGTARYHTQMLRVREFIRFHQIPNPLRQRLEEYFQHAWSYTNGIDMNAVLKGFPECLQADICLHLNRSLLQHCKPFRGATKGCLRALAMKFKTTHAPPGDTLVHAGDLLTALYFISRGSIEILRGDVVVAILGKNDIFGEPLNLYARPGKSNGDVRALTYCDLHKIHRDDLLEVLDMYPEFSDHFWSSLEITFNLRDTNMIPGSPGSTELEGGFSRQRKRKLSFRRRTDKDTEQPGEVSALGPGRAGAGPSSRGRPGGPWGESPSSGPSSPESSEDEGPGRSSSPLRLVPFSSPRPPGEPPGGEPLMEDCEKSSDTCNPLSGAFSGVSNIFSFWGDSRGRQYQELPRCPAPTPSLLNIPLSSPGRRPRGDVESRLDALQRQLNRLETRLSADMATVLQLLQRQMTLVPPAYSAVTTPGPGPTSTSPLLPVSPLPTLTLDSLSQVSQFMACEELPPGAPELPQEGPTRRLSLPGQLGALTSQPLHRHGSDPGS
# [43] = Half life in rat at 1 mg/kg, iv; type: ADME, organism-based; conditions: in vivo
# [44] = Half life in dog at 1 mg/kg, iv; type: ADME, organism-based, Canis lupus familiaris; conditions: in vivo
# OVCAR-3 [45] = assay: Antitumor activity against human OVCAR-3 cells xenografted in female Balb/c nude mouse assessed as tumor growth inhibition at 2 mg/kg, po administered once daily and measured on day 22; type: functional; conditions: OVCAR-3, 528 h, time 22 day, read-out: TGI
# [46] = Cmax in human HCC70 cells xenografted in female nu/nu mouse plasma at 1 mg/kg, po administered once daily; type: ADME, organism-based
# [47] = Volume of distribution at steady state in rat at 1 mg/kg, iv; type: ADME, organism-based; conditions: in vivo, read-out: Vdss
# [48] = Volume of distribution at steady state in mouse at 1 mg/kg, iv; type: ADME, organism-based; conditions: in vivo, iv, 1 mg/kg
# [49] = AUC (0 to t) in dog at 1 mg/kg, iv; type: ADME, organism-based, Canis lupus familiaris; conditions: in vivo
# [50] = Toxicity in female nu/nu mouse xenografted with human HCC70 cells assessed as body weight loss at 1 to 10 mg/kg, po administered once daily and measured for 4 weeks; type: organism-based; conditions: in vivo, 672 h, dose 1-10 mg/kg
# [51] = Metabolic stability in human liver microsomes assessed as intrinsic clearance; type: ADME, Microsome; conditions: read-out: CLH
# [52] = Volume of distribution at steady state in dog at 1 mg/kg, iv; type: ADME, organism-based, Canis lupus familiaris; conditions: in vivo, read-out: Vdss
# [53] = Cmax in rat at 5 mg/kg, po; type: ADME, organism-based; conditions: in vivo
# [54] = AUC(0 to t) in mouse at 1 mg/kg, iv; type: ADME, organism-based; conditions: in vivo
# [55] = Metabolic stability in rat liver microsomes assessed as intrinsic clearance; type: ADME, Microsome; conditions: read-out: CLH
# [56] = Drug concentration in rat small intestine at 5 mg/kg, po measured after 0.5 hrs; type: ADME, organism-based; conditions: read-out: Ct
# HCC70 [57] = assay: Antitumor activity against human HCC70 cells xenografted in female nu/nu mouse assessed as tumor growth inhibition at 1 mg/kg, po administered once daily and measured for 4 weeks; type: functional; conditions: HCC70, 672 h, read-out: TGI
# [58] = Drug concentration in rat small intestine at 5 mg/kg, po measured after 2 hrs; type: ADME, organism-based; conditions: read-out: Ct
smiles,measurement,setting,value
CN1CCCCO[C@H]2CC[C@@H](C2)Nc2ncc(C(F)(F)F)c(n2)-c2c[nH]c3c(P(C)(C)=O)c(ccc23)C1=O,efflux ratio,[1],1.1
same,Vd,[2],1 L/kg
same,Cmax,[3],343 ng/mL
same,Papp,[4],26 ×10⁻⁶ cm/s
same,AUC(0-t),[5],563 ng·h/mL
same,clearance,[6],45.8 mL/min/kg
same,half-life,[7],1 h
same,IC50,OVCAR-3 [8],180 nM
same,IC50,HCC70 [9],243 nM
same,Kd,[10],3.5 nM
same,bioavailability,[11],30.9%
CP(C)(=O)c1c2ccc3c(c[nH]c13)-c1nc(ncc1C(F)(F)F)N[C@H]1CC[C@@H](C1)NCCCCNC2=O,Cmax,[12],16.8 ng/mL
same,efflux ratio,[1],> 15.1
same,Vd,[2],3.6 L/kg
same,AUC(0-inf),[13],333 ng·h/mL
same,Papp,[4],< 0.48 ×10⁻⁶ cm/s
same,half-life,[14],1.4 h
same,clearance,[6],49.3 mL/min/kg
same,AUC(0-inf),[15],26 ng·h/mL
same,bioavailability,[16],0.7%
same,CLint scaled,[17],< 13.4 mL/min/kg
same,IC50,HCC70 [9],33 nM
same,Kd,[10],0.16 nM
CC1(C)CC[C@H](Nc2ncc(C(F)(F)F)c(-c3c[nH]c4c(P(C)(C)=O)c(C#N)ccc34)n2)CN1 [SY-5609],AUC(0-t),[18],1460 ng·h/mL
same,fraction unbound,[19],0.065
same,t1/2,[20],0.6 h
same,Cmax,[21],80 ng/mL
same,fraction unbound,[22],0.142
same,bioavailability,[23],89.7%
same,Cmax,[24],123 ng/mL
same,concentration at 8 h,[25],842 ng/g
same,concentration at 0.5 h,[26],13.4 ng/mL
same,AUC(0-t),[27],1920 ng·h/mL
same,concentration at 8 h,[28],43.1 ng/mL
same,half-life,[29],6.6 h
same,bioavailability,[30],65.8%
same,AUC(0-t),[31],138 ng·h/mL
same,AUC(0-t),[32],920 ng·h/mL
same,Papp,[4],2.54 ×10⁻⁶ cm/s
same,bioavailability,[33],94.3%
same,Cmax,[34],339 ng/mL
same,clearance,[35],67.5 mL/min/kg
same,AUC(0-t),[36],247 ng·h/mL
same,AUC(0-t),[37],387 ng·h/mL
same,solubility,[38],172 µg/mL
same,half-life,[39],2.7 h
same,concentration at 2 h,[40],69.3 ng/mL
same,fraction unbound,[41],0.163
same,clearance,[42],14.5 mL/min/kg
same,inhibition at 10 µM,hERG,37.1%
same,half-life,[43],3.2 h
same,half-life,[44],6.9 h
same,inhibition in vivo at 2 mg/kg,OVCAR-3 [45],110%
same,Cmax,[46],33.5 ng/mL
same,Vd,[47],16.9 L/kg
same,Vdss,[48],5.9 L/kg
same,AUC(0-t),[49],1110 ng·h/mL
same,Activity,[50],Non-toxic
same,CLint scaled,[17],< 26.7 mL/min/kg
same,CLint scaled,[51],7.2 mL/min/kg
same,IC50,HCC70 [9],72 nM
same,Vd,[52],7.6 L/kg
same,Cmax,[53],76 ng/mL
same,AUC(0-t),[54],406 ng·h/mL
same,CLint scaled,[55],4.3 mL/min/kg
same,concentration at 0.5 h,[56],2500 ng/g
same,inhibition in vivo at 1 mg/kg,HCC70 [57],48.8%
same,concentration at 2 h,[58],5030 ng/g
CN1CCOCCN(C)[C@H]2CC[C@@H](C2)Nc2ncc(C(F)(F)F)c(n2)-c2c[nH]c3c(P(C)(C)=O)c(ccc23)C1=O,efflux ratio,[1],32.5
same,Vd,[2],1.5 L/kg
same,Cmax,[3],268 ng/mL
same,Papp,[4],0.39 ×10⁻⁶ cm/s
same,AUC(0-t),[5],572 ng·h/mL
same,clearance,[6],41.3 mL/min/kg
same,half-life,[7],1.5 h
same,IC50,OVCAR-3 [8],241 nM
same,IC50,HCC70 [9],56.1 nM
same,bioavailability,[11],28.4%
CN1CCCCN(C)[C@H]2CC[C@@H](C2)Nc2ncc(C(F)(F)F)c(n2)-c2c[nH]c3c(P(C)(C)=O)c(ccc23)C1=O,efflux ratio,[1],19.2
same,Vd,[2],5.6 L/kg
same,Cmax,[3],105 ng/mL
same,Papp,[4],0.72 ×10⁻⁶ cm/s
same,AUC(0-t),[5],302 ng·h/mL
same,clearance,[6],62.5 mL/min/kg
same,half-life,[7],2.1 h
same,IC50,OVCAR-3 [8],105 nM
same,IC50,HCC70 [9],22 nM
same,bioavailability,[11],22.7%
CP(C)(=O)c1c2ccc3c(c[nH]c13)-c1nc(ncc1C(F)(F)F)N[C@H]1CC[C@@H](C1)NCCOCCNC2=O,Cmax,[12],89.4 ng/mL
same,efflux ratio,[1],> 35.8
same,Vd,[2],12 L/kg
same,AUC(0-inf),[13],163 ng·h/mL
same,Papp,[4],< 0.48 ×10⁻⁶ cm/s
same,half-life,[14],2 h
same,clearance,[6],95.9 mL/min/kg
same,AUC(0-inf),[15],412 ng·h/mL
same,bioavailability,[16],22.8%
same,CLint scaled,[17],< 13.4 mL/min/kg
same,IC50,HCC70 [9],29 nM
same,Kd,[10],0.06 nM
